{"source": "patent US4923963A", "about": "“Bradykinin antagonist peptides” (Nova Technology Limited Partnership, priority 1987, dated 1990)", "key": {"isolated rat uterus": {"system": "isolated rat uterus", "type": "cell-based", "conditions": "for pA2 /RUT: activity class: not quantitated", "procedure": "(§1) The bradykinin antagonists were assayed on isolated rat uterus in natural or induced estrus and on guinea pig ileum, according to the commonly accepted assay methods for bradykinin and related kinins as described by Trautschold (Handbook of Expt. Pharmacol. Vol 25, Springer Verlag, pp. 53-55, 1970) for inhibition of the myotropic activity of bradykinin. The inhibition potencies, as determined according to the commonly accepted manner described by Schild for antagonists of biologically active compounds (Br. J. Pharmacol. 2:189, 1947), and expressed as pA2 values are determined on isolated rat uterus (RUT) and isolated guinea pig ileum (GPI). In the assays, a dose-response curve is determined for the reference substance bradykinin. The dose of bradykinin which produced a half maximal contraction of tissue is the ED50 dose. An amount of bradykinin equivalent to twice the ED50 dose is administered to the tissue 30 seconds after the start of incubation of the tissue with a dose of antagonist. Doses of antagonist are increased in this protocol until pre-incubation with a dose of antagonist reduces the contraction in response to the double ED50 dose of bradykinin to response of a single ED50 dose of bradykinin. The pA2 value represents the negative logarithm of the molar concentration of antagonist necessary to reduce the response of a double ED50 dose of bradykinin to that of an ED50 dose. One unit of pA2 value represents an order of magnitude change in potency. For comparison, the negative log of the dose of BK, the dose which causes half maximal contraction of the tissues, is commonly known as the pD2 value. The pD2 value for bradykinin is 7.9 on the rat uterus and 7.4 on the guinea pig ileum."}, "[1]": {"system": "isolated guinea pig ileum", "type": "cell-based", "design": "pA2 /GPI: activity class: scale not given here", "conditions": "isolated guinea pig ileum; for pA2 /GPI: activity class: not quantitated; for pA2 /GPI (antagonist potency): number of tissues in parentheses", "procedure": "as §1"}, "rat blood pressure": {"system": "rat blood pressure", "assay": "effects on blood pressure in the anesthetized rat (RBP), intraaortic and intravenous bolus", "type": "in vivo", "design": "RBP-IA: activity class / RBP-IV: activity class: scale not given here", "conditions": "rat blood pressure; for RBP-IA: activity class: intraaortic bolus; for RBP-IV: activity class: intravenous bolus", "procedure": "The in vivo effects of bradykinin antagonists on blood pressure in the anesthetized rat are determined according to the assay described by Roblero, Ryan and Stewart (Res. Commun. Pathol. Pharmacol. 6:207, 1973). The antagonists also produce inhibition of the bradykinin response when injected as a bolus admixture of bradykinin plus antagonist by either the ia or iv route of administration."}, "[2]": {"conditions": "isolated rat uterus, number of tissues in parentheses"}}, "note": "Like-named read-outs stand apart in the source and are kept apart here. Square brackets hold non-standard residues; d marks the D form. Peptide text beside a SMILES is read from it. dPhe(4-Cl) = N[C@H](Cc1ccc(Cl)cc1)C(=O)O; dPhe(4-F) = N[C@H](Cc1ccc(F)cc1)C(=O)O; d2Nal = N[C@H](Cc1ccc2ccccc2c1)C(=O)O; Hyp = O=C(O)[C@@H]1C[C@@H](O)CN1; 2Thi = N[C@@H](Cc1cccs1)C(=O)O; d2Thi = N[C@H](Cc1cccs1)C(=O)O"}
{"compound": "N=C(N)NCCC[C@H](NC(=O)[C@H](Cc1ccccc1)NC(=O)[C@@H](Cc1cccs1)NC(=O)[C@H](CO)NC(=O)[C@H](Cc1ccccc1)NC(=O)CNC(=O)[C@@H]1CCCN1C(=O)[C@@H]1CCCN1C(=O)[C@H](N)Cc1ccc2ccccc2c1)C(=O)O", "note": "[Example 37, DNal-Pro-Pro-Gly-Phe-Ser-DThi-Phe-Arg] (H-[d2Nal]PPGFS[d2Thi]FR-OH)", "values": [{"measurement": "pA2 /RUT: activity class", "setting": "isolated rat uterus; isolated rat uterus", "value": 0}, {"measurement": "pA2 /GPI: activity class", "setting": "[1]", "value": 0}]}
{"compound": "CC(=O)N[C@@H](CCCNC(=N)N)C(=O)N1CCC[C@H]1C(=O)N1CCC[C@H]1C(=O)NCC(=O)N[C@@H](Cc1cccs1)C(=O)N[C@@H](CO)C(=O)N[C@H](Cc1ccccc1)C(=O)N[C@@H](Cc1cccs1)C(=O)N[C@H](CCCNC(=N)N)C(N)=O", "note": "[Example 56, Ac-Arg-Pro-Pro-Gly-Thi-Ser-DPhe-Thi-DArg-NH2] (Ac-RPPG[2Thi]S[dF][2Thi][dR]-NH2)", "values": [{"measurement": "pA2 /RUT: activity class", "setting": "isolated rat uterus; isolated rat uterus", "value": 0}, {"measurement": "pA2 /GPI: activity class", "setting": "[1]", "value": 0}]}
{"compound": "CC(C)[C@@H](NC(=O)[C@H](N)CCCNC(=N)N)C(=O)N1CCC[C@H]1C(=O)N1C[C@H](O)C[C@H]1C(=O)NCC(=O)N[C@@H](Cc1ccccc1)C(=O)N[C@@H](CO)C(=O)N[C@H](Cc1ccccc1)C(=O)N[C@@H](Cc1ccccc1)C(=O)N[C@@H](CCCNC(=N)N)C(=O)O", "note": "[Example 16, DArg-DVal-Pro-Hyp-Gly-Phe-Ser-DPhe-Phe-Arg] (H-[dR][dV]P[Hyp]GFS[dF]FR-OH)", "values": [{"measurement": "RBP-IA: activity class", "setting": "rat blood pressure", "value": 0}, {"measurement": "RBP-IV: activity class", "setting": "rat blood pressure", "value": 0}, {"measurement": "pA2 /GPI: activity class", "setting": "[1]", "value": 0}]}
{"compound": "N=C(N)NCCC[C@@H](N)C(=O)N1CCC[C@H]1C(=O)N1C[C@H](O)C[C@H]1C(=O)NCC(=O)N[C@@H](Cc1cccs1)C(=O)N[C@@H](CO)C(=O)N[C@H](Cc1ccccc1)C(=O)N[C@@H](Cc1cccs1)C(=O)N[C@@H](CCCNC(=N)N)C(=O)O", "note": "[Example 8, DArg-Pro-Hyp-Gly-Thi-Ser-DPhe-Thi-Arg] (H-[dR]P[Hyp]G[2Thi]S[dF][2Thi]R-OH)", "values": [{"measurement": "pA2 /RUT (antagonist potency)", "setting": "isolated rat uterus", "value": 5.4}, {"measurement": "pA2 /GPI (antagonist potency)", "setting": "[1]", "value": 5.4}]}
{"compound": "N=C(N)NCCC[C@@H](N)C(=O)N[C@H](Cc1ccc(F)cc1)C(=O)N1CCC[C@H]1C(=O)N1C[C@H](O)C[C@H]1C(=O)NCC(=O)N[C@@H](Cc1ccccc1)C(=O)N[C@@H](CO)C(=O)N[C@H](Cc1ccccc1)C(=O)N[C@@H](Cc1ccccc1)C(=O)N[C@@H](CCCNC(=N)N)C(=O)O", "note": "[Example 12, DArg-FDF-Pro-Hyp-Gly-Phe-Ser-DPhe-Phe-Arg] (H-[dR][dPhe(4-F)]P[Hyp]GFS[dF]FR-OH)", "values": [{"measurement": "pA2 /RUT (antagonist potency)", "setting": "isolated rat uterus; [2]", "value": 5.7}, {"measurement": "pA2 /GPI: activity class", "setting": "[1]", "value": 0}]}
{"compound": "CC[C@H](C)[C@H](NC(=O)[C@H](CCCNC(=N)N)NC(=O)[C@H](Cc1ccccc1)NC(=O)[C@@H](Cc1ccccc1)NC(=O)[C@H](CO)NC(=O)[C@H](Cc1ccccc1)NC(=O)CNC(=O)[C@@H]1CCCN1C(=O)[C@@H]1CCCN1C(=O)[C@H](CCCNC(=N)N)NC(=O)[C@H](N)CCCNC(=N)N)C(=O)N[C@@H](Cc1ccc(O)cc1)C(=O)O", "note": "[Example 64, DArg-Arg-Pro-Pro-Gly-Phe-Ser-DPhe-Phe-Arg-Ile-Tyr] (H-[dR]RPPGFS[dF]FRIY-OH)", "values": [{"measurement": "pA2 /RUT: agonist potency as percent of BK potency", "setting": "isolated rat uterus; isolated rat uterus", "value": 0.7, "unit": "%"}, {"measurement": "pA2 /GPI (antagonist potency)", "setting": "[1]", "value": 6.2}]}
{"compound": "N=C(N)NCCC[C@H](NC(=O)[C@H](Cc1ccccc1)NC(=O)[C@@H](Cc1cccs1)NC(=O)[C@H](CO)NC(=O)[C@H](Cc1ccccc1)NC(=O)CNC(=O)[C@@H]1C[C@@H](O)CN1C(=O)[C@@H]1CCCN1C(=O)[C@H](N)Cc1ccc2ccccc2c1)C(=O)O", "note": "[Example 38, DNal-Pro-Hyp-Gly-Phe-Ser-DThi-Phe-Arg] (H-[d2Nal]P[Hyp]GFS[d2Thi]FR-OH)", "values": [{"measurement": "pA2 /RUT: activity class", "setting": "isolated rat uterus; isolated rat uterus", "value": 0}, {"measurement": "pA2 /GPI: activity class", "setting": "[1]", "value": 0}]}
{"compound": "N=C(N)NCCC[C@H](NC(=O)[C@H](Cc1ccccc1)NC(=O)[C@@H](Cc1cccs1)NC(=O)[C@H](CO)NC(=O)[C@H](Cc1ccccc1)NC(=O)CNC(=O)[C@@H]1CCCN1C(=O)[C@@H]1CCCN1C(=O)[C@H](N)Cc1ccc(Cl)cc1)C(=O)O", "note": "[Example 6, CDF-Pro-Pro-Gly-Phe-Ser-DThi-Phe-Arg] (H-[dPhe(4-Cl)]PPGFS[d2Thi]FR-OH)", "values": [{"measurement": "RBP-IA: activity class", "setting": "rat blood pressure", "value": 0}, {"measurement": "RBP-IV: activity class", "setting": "rat blood pressure", "value": 0}, {"measurement": "pA2 /GPI: activity class", "setting": "[1]", "value": 0}]}
{"compound": "N=C(N)NCCC[C@H](NC(=O)[C@H](Cc1ccccc1)NC(=O)[C@@H](Cc1ccccc1)NC(=O)[C@H](CO)NC(=O)[C@H](Cc1ccccc1)NC(=O)CNC(=O)[C@@H]1CCCN1C(=O)[C@@H]1CCCN1C(=O)[C@H](N)Cc1ccc2ccccc2c1)C(=O)O", "note": "[Example 29, DNal-Pro-Pro-Gly-Phe-Ser-DPhe-Phe-Arg] (H-[d2Nal]PPGFS[dF]FR-OH)", "values": [{"measurement": "pA2 /RUT (antagonist potency)", "setting": "isolated rat uterus", "value": 5.4}, {"measurement": "pA2 /GPI: activity class", "setting": "[1]", "value": 0}]}
{"compound": "N=C(N)NCCC[C@@H](N)C(=O)N[C@H](Cc1ccc2ccccc2c1)C(=O)N1CCC[C@H]1C(=O)N1C[C@H](O)C[C@H]1C(=O)NCC(=O)N[C@@H](Cc1ccccc1)C(=O)N[C@@H](CO)C(=O)N[C@H](Cc1cccs1)C(=O)N[C@@H](Cc1ccccc1)C(=O)N[C@@H](CCCNC(=N)N)C(=O)O", "note": "[Example 40, DArg-DNal-Pro-Hyp-Gly-Phe-Ser-DThi-Phe-Arg] (H-[dR][d2Nal]P[Hyp]GFS[d2Thi]FR-OH)", "values": [{"measurement": "pA2 /RUT (antagonist potency)", "setting": "isolated rat uterus", "value": 5.6}, {"measurement": "pA2 /GPI: activity class", "setting": "[1]", "value": 0}]}
{"compound": "N=C(N)NCCC[C@H](NC(=O)[C@H](Cc1ccccc1)NC(=O)[C@@H](Cc1ccccc1)NC(=O)[C@H](CO)NC(=O)[C@H](Cc1ccccc1)NC(=O)CNC(=O)[C@@H]1CCCN1C(=O)[C@@H]1CCCN1C(=O)[C@H](N)Cc1ccc(Cl)cc1)C(=O)O", "note": "[Example 2, CDF-Pro-Pro-Gly-Phe-Ser-DPhe-Phe-Arg] (H-[dPhe(4-Cl)]PPGFS[dF]FR-OH)", "values": [{"measurement": "pA2 /RUT (antagonist potency)", "setting": "isolated rat uterus; [2]", "value": 5.0}, {"measurement": "pA2 /GPI: activity class", "setting": "[1]", "value": 0}]}
{"compound": "CC[C@@H](C)[C@@H](NC(=O)[C@H](N)CCCNC(=N)N)C(=O)N1CCC[C@H]1C(=O)N1C[C@H](O)C[C@H]1C(=O)NCC(=O)N[C@@H](Cc1ccccc1)C(=O)N[C@@H](CO)C(=O)N[C@H](Cc1ccccc1)C(=O)N[C@@H](Cc1ccccc1)C(=O)N[C@@H](CCCNC(=N)N)C(=O)O", "note": "[Example 18, DArg-DIle-Pro-Hyp-Gly-Phe-Ser-DPhe-Phe-Arg] (H-[dR][dI]P[Hyp]GFS[dF]FR-OH)", "values": [{"measurement": "RBP-IA: activity class", "setting": "rat blood pressure", "value": 0}, {"measurement": "RBP-IV: activity class", "setting": "rat blood pressure", "value": 0}, {"measurement": "pA2 /GPI: activity class", "setting": "[1]", "value": 0}]}
{"compound": "N=C(N)NCCC[C@H](NC(=O)[C@H](Cc1ccccc1)NC(=O)[C@@H](Cc1ccccc1)NC(=O)[C@H](CO)NC(=O)[C@H](Cc1ccccc1)NC(=O)CNC(=O)[C@@H]1C[C@@H](O)CN1C(=O)[C@@H]1CCCN1C(=O)[C@H](N)Cc1ccc(O)cc1)C(=O)O", "note": "[Example 9, DTyr-Pro-Hyp-Gly-Phe-Ser-DPhe-Phe-Arg] (H-[dY]P[Hyp]GFS[dF]FR-OH)", "values": [{"measurement": "pA2 /GPI: activity class", "setting": "[1]", "value": 0}]}
{"compound": "CC[C@@H](C)[C@@H](N)C(=O)N1CCC[C@H]1C(=O)N1C[C@H](O)C[C@H]1C(=O)NCC(=O)N[C@@H](Cc1ccccc1)C(=O)N[C@@H](CO)C(=O)N[C@H](Cc1ccccc1)C(=O)N[C@@H](Cc1ccccc1)C(=O)N[C@@H](CCCNC(=N)N)C(=O)O", "note": "[Example 17, DIle-Pro-Hyp-Gly-Phe-Ser-DPhe-Phe-Arg] (H-[dI]P[Hyp]GFS[dF]FR-OH)", "values": [{"measurement": "RBP-IA: activity class", "setting": "rat blood pressure", "value": 0}, {"measurement": "RBP-IV: activity class", "setting": "rat blood pressure", "value": 0}, {"measurement": "pA2 /GPI: activity class", "setting": "[1]", "value": 0}]}
{"compound": "N=C(N)NCCC[C@@H](N)C(=O)N[C@H](Cc1cccs1)C(=O)N1CCC[C@H]1C(=O)N1C[C@H](O)C[C@H]1C(=O)NCC(=O)N[C@@H](Cc1ccccc1)C(=O)N[C@@H](CO)C(=O)N[C@H](Cc1cccs1)C(=O)N[C@@H](Cc1ccccc1)C(=O)N[C@@H](CCCNC(=N)N)C(=O)O", "note": "[Example 36, DArg-DThi-Pro-Hyp-Gly-Phe-Ser-DThi-Phe-Arg] (H-[dR][d2Thi]P[Hyp]GFS[d2Thi]FR-OH)", "values": [{"measurement": "pA2 /GPI: activity class", "setting": "[1]", "value": 0}]}
